Data taken from US12128038B2, “Method of treatment of organic acidemias and other mitochondria defects or deficiencies” (University of Pittsburgh-Of the Commonwealth System of …, priority 2020, dated 2024).

Key:
Type in all cases: cell-based, human
[1] = test system: cells from patients with inborn errors of energy metabolism; experiment: Cellular bioenergetics and reactive oxygen on incubation with antioxidants
[2] = test system: PA (859) fibroblast cell line; experiment: Mitochondrial respiration (oxygen consumption rate), Seahorse XFe96 Extracellular Flux Analyzer; settings: PA cells, treatment for 24 h, Seahorse OCR
Description: (§1) Cells Culture and Treatments: Fibroblast from a healthy control (826) and a PA patient (859) were grown in DMEM with glucose supplemented with 10% FBS, and 4 mM glutamine. Control and PA cells were treated either with JP4-039, CLP, or DMSO (vehicle control) for 24 h and then harvested for analysis.
Measurement of Mitochondria Respiration: Oxygen consumption rate (OCR) was measured with a Seahorse XFe96 Extracellular Flux Analyzer, Seahorse Bioscience, Billerica, MA.
FIG. 3. Effect of JP4-039 and CLP on basal respiration of control (826) and PA (859) fibroblast cell line. Data shown here are means±SEM and are normalized to protein amount mean value. ****P<0.0001 and ***P<0.001 compared between the groups shown using unpaired t test for samples from a single biological replicate and 8 technical replicates.

[3] = test system: PA patient (859) fibroblasts; experiment: Mitochondrial superoxide production by MitoSOX Red assay (flow cytometry); settings: PA cells, treatment for 24 h
Description: as §1
Mitochondrial Superoxide production and Mitochondrial Mass: 150,000 Cells were incubated with MitoSOX Red (5 μM) and MitoTracker Green (150 nM) for 20 min at 37° C. and then analyzed by FACSAriall Flow cytometer.
FIG. 2. Superoxide levels detected by MitoSOX Red assay (A, B and C) and Mitochondrial mass detected by MitoTracker Green (D, E and F) in PA and healthy control cells with and without treatment for 24 h (A, B and C). Data shown here are means±SD and are normalized to WT mean value. ****P<0.0001, ***P<0.001, **P<0.01, *P<0.05 compared between the groups shown using unpaired t test for samples from a single biological replicate and minimum of at least three technical replicates.

## CC(C)C[C@@H](/C=C/[C@H](Cc1ccccc1)C(=O)N1CCC[C@H]1C(=O)N[C@H](C(=O)N[C@@H](CCCNC(=O)OCc1ccccc1)C(=O)NC1CC(C)(C)N([O])C(C)(C)C1)C(C)C)NC(=O)OC(C)(C)C [XJB-5-131]
[1]
  cellular bioenergetics: improve
  reactive oxygen: improve

## O=C(O)CC(O)(CC(=O)O)C(=O)O [citrate]
[2]
  basal respiration: reduced
[3]
  superoxide level: reduced

## O=C(O)CCC(=O)O [succinate]
[2]
  basal respiration: reduced
[3]
  superoxide level: reduced
